Measured values: patent publication US20180193361A1, “GUT ANTI-INFLAMMATORY AGENTS FOR REGULATION OF HIGH BLOOD GLUCOSE LEVELS” (UNIVERSITY HEALTH NETWORK, priority 2015, published 2018)

Key:
gut epithelial barrier = details: models of IBD (Di Paolo et al., 1996; Liu et al., 2009); cited from earlier work
[1] = tablet; the remaining has local effects in the colon; cited from earlier work
MODE-K intestinal cells = test: ZO-1 expression in MODE-K cells treated with IFNγ; format: cell-based, murine; details: recombinant mouse IFNγ 5 or 10 ng/mL, 24 hours
Method: To measure the effect of IFNγ on tight-junction gene expression, we treated MODE-K cells with recombinant mouse IFNγ (Biolegend). We purified bulk dendritic cells and T cells from murine small bowels and spleens using a negative selection DC or T cell isolation kit (Stem Cell Technologies). We plated T cells at 5×10^5 cells/well with plate-bound anti-CD3/CD28 (1 μg/ml, Biolegend). […] We collected supernatants for cytokine measurements after 72 hour incubation. […] After 24 hours, we washed the cells with PBS and co-cultured them (1×10^4 cells/well) with OVA323-339 peptide and OT-II splenic or small bowel T cells (5×10^4 cells/well) for 48 hours. Supernatants were collected at 48 hours for cytokine measurement.
The murine intestinal epithelial cell line derived from C3H/He mice. […]
We extracted total RNA from isolated or cultured cells using a RNeasy Mini Kit (Qiagen), and for subcutaneous adipose tissue (SAT) and VAT we used a RNeasy Lipid Extraction kit (Qiagen). […] We assessed expression of adipocyte P2 (aP2), CCAAT/enhancer-binding protein-α (CEBPα), Peroxisome proliferator-activated receptor-γ (PPARγ), and sterol regulatory element-binding protein (SREBP) cDNA. […] We calculated relative fold changes in gene expression normalized to 18s or GAPDH by the ΔΔCT method using the equation 2-ΔΔCT. […]

Which “intactness of the gut epithelial barrier” value (gut epithelial barrier) does the source give for `O=C(O)CCNC(=O)c1ccc(/N=N/c2ccc(O)c(C(=O)O)c2)cc1` [Balsalazide] here?
Its value is “beneficial effects”.

With `O=C(O)c1cc(/N=N/c2ccc(S(=O)(=O)Nc3ccccn3)cc2)ccc1O` [Sulfasalazine] as the molecule, how does the “absorbed in small bowel” value [1] read?
Its value is “approximately 20%”.

B1: IFNγ: recombinant mouse IFNγ (Biolegend) (protein, UniProt P01580 23-155, looked up)
Interferon gamma: HGTVIESLESLNNYFNSSGIDVEEKSLFLDIWRNWQKDGDMKILQSQIISFYLRLFEVLKDNQAISNNISVIESHLITTFFSNSKAKKDAFMSIAKFEVNNPQVQRQAFNELIRVVHQLLPESSLRKRKRSRC
For B1, which “ZO-1 tight junction gene expression” value (MODE-K intestinal cells) is on record?
The value was “reduce”.
